Measured values published in US20190040101A1, “COMPOUND FOR TREATING SEQUELAE OF ISCHEMIC CEREBRAL STROKE” (priority 2015, published 2019).
Residues, ends and D or L forms follow the SMILES beside them.

What was measured:
[1] = tested on: right cerebral artery ischemia/reperfusion model in rats; assay: Neurologic deficit score in the rat 1.5-hour ischemia/reperfusion model; format: in vivo, Sprague-Dawley (SD) rats; settings: 3.6 mg/kg intraperitoneal once a day
Protocol: (§1) Sprague-Dawley (SD) rats, male, weighing 280-320 g, clean, feeding, conditions: room temperature of 20-25° C., humidity of 30-60%, well ventilated, ad libitum diet; the animals were acclimatized in the feeding environment for three days prior to the experiment.
(§2) The rats were anesthetized with 4% chloral hydrate (350 mg/kg, ip.) and then were fixed in a supine position. A midline ventral neck incision was made, the right common carotid artery was separated and snared with two sutures for further use. Then, the internal carotid artery and external carotid artery were separated, and the external carotid artery was ligatured. The separated common carotid artery was ligatured at its proximal end with a thread, and the blood flow of the same was blocked at its distal end with a bulldog clamp. A small opening was cut therebetween and a nylon suture (4-0) which is heated at one end into a bead-like shape (having a diameter of <0.3 mm) was inserted into the small opening. […]
Neurologic deficit scores were assessed for the above experimental animals according to the following procedure before the beginning of experiment and 24 hours, 1 day, 3 days, 7 days, 14 days, 28 days, 56 days, and 112 days after the beginning of experiment; Score rules: see Zea Longer score and NSS score, full score of 10; • (i) Lifting an animal by tail: (full score of 1) […]

[2] = Body weight of rats in the 1.5-hour ischemia/reperfusion model; format: in vivo, Sprague-Dawley (SD) rats; settings: 3.6 mg/kg intraperitoneal once a day
Protocol: as §1
as §2, with “opening. The bulldog clamp was removed, and the nylon suture was gently advanced to the origin of the anterior cerebral artery (18-20 mm), thereby causing arterial ischemia in brain by blocking the blood supply of the cerebral artery. The skin was sutured and was sterilized with tincture of iodine.” for “opening.”

SMILES: CC(C)CC(NC(=O)C(CCC(N)=O)NC(=O)C(NC(=O)C(CO)NC(=O)C(Cc1c[nH]cn1)NC(=O)C(N)C(C)C)C(C)C)C(=O)NC(Cc1ccc(O)cc1)C(=O)O (stereo not shown) [compound of formula (III)] (H-VHSVQLY-OH; configuration not given here)
- neuroethology (neurologic deficit) score compared to the model group ([1]; I1.5R+1 week+dosing for 4 weeks, statistically significant in weeks 2, 3, 4, 5 and 7 after the operation, FIG. 4): gradually declined neuroethology score
- neurological score compared to the model group ([1]; I1.5R+2 weeks+dosing for 4 weeks, statistically significant at the fifth week after the operation, FIG. 6): declined from the beginning of the administration
- weight change compared to the model group ([2]; I1.5R+1 week+dosing for 4 weeks, FIG. 3): gradually increased weight
- weight change compared to the model group ([2]; I1.5R+2 weeks+dosing for 4 weeks, weight data not demonstrative (groups already differed before dosing), FIG. 5): gradually increased weight
